Calls of active or inactive are those of the source. No rule for the calls is given here.
Assay: Luciferase light induction in v cholerae bh1651, agonist dose response, confirmatory (AID 624254)
Settings: V. cholerae BH1651 luxOD47E, luciferase light induction, 6 h; at 50 µM (top of the series)

Row | Structure (SMILES) | activation (light increase)
1 | Cc1onc(-c2ccccc2)c1C(=O)Nc1nc2c(s1)CCCC2 | inactive
2 | O=C(NCCC(=O)N1CCN(c2ccc(F)cc2)CC1)c1ccco1 | inactive
3 | O=C(O)c1[nH]c2ccccc2c1NS(=O)(=O)Cc1ccccc1 | inactive
4 | CCOC(=O)Nc1ccc(S(=O)(=O)Nc2cc(C)nc(C)n2)cc1 | inactive
5 | CC(C)Oc1ccc(C(=O)Nc2cc(S(=O)(=O)N3CCOCC3)ccc2N2CCOCC2)cc1 | inactive
6 | C[C@@H]1CN([C@H](C)CO)C(=O)c2cccc(NC(=O)Nc3ccc4c(c3)OCO4)c2O[C@H]1CN(C)S(=O)(=O)c1ccccc1 | inactive
7 | Cc1ccc(CN(Cc2cc3cc(C)ccc3[nH]c2=O)C(=O)N2CCOCC2)cc1 | inactive
8 | Cc1ccc(C)c(N(C(=O)Cn2nnc(-c3cccs3)n2)C(C(=O)NC2CC2)c2ccc(C)o2)c1 (stereo not drawn) | inactive
9 | N#Cc1nc(-c2ccc(OCc3ccc(Cl)cc3)cc2)oc1NCc1cccnc1 | inactive
10 | Cc1nnc(NC(=O)c2cccc(S(=O)(=O)N3CCc4ccccc43)c2)s1 | inactive
11 | CN(Cc1cn[nH]c1-c1cc2ccccc2o1)CC1CCOCC1 | inactive
12 | COc1ccc(S(=O)(=O)N2CCCC(C(=O)NCc3ccncc3)C2)cc1 (stereo not drawn) | inactive
13 | Cc1cccc(NS(=O)(=O)c2ccc(Oc3ccccc3)cc2)n1 | inactive
14 | Cn1cnnc1SCCOc1ccc(Cl)cc1 | inactive
15 | CC(C)CC(=O)Nc1ccccc1N1CCN(C(=O)c2ccccc2)CC1 | inactive
16 | C[C@H](CO)N1C[C@H](C)[C@H](CN(C)S(=O)(=O)c2cccs2)Oc2c(NC(=O)C3CC3)cccc2C1=O | inactive
17 | NNC(=O)c1nnn(-c2nonc2N)c1CN1CCCC1 | inactive
18 | COc1ccc(C(=O)COC(=O)c2cccc(-n3cnnn3)c2)c(OC)c1 | inactive
19 | CCOC(=O)CNc1c(-c2ccc(Cl)cc2)nc2cnccn12 | inactive
20 | COC(=O)c1c(-c2ccc(Br)cc2)noc1N | inactive
21 | COc1cc(C(N)=O)cc(Br)c1OC | inactive
22 | O=S(=O)(Nc1cccc(S(=O)(=O)N2CCCCC2)c1)c1ccccc1F | inactive
23 | CCn1c(SCC(=O)OC2CCCCC2)nnc1-c1ccncc1 | inactive
24 | COCCNC(=S)N(CCCO)Cc1cc2cc3c(cc2[nH]c1=O)OCCO3 | inactive
25 | COCCCn1c(=S)[nH]c2ccc(N3CCOCC3)cc2c1=O | inactive

Row | Structure (SMILES) | activation (light increase)
26 | CCOC(=O)Cn1nc(C)n(-c2ccc(C(C)C)cc2)c1=O | inactive
27 | Clc1ccc(-c2cc(COc3ccc4ccccc4c3)no2)cc1 | inactive
28 | CCCc1ccc2oc(C(=O)N(Cc3ccncc3)CC3CCCO3)c(C)c2c1 (stereo not drawn) | inactive
29 | Cc1cccc(N(CC(N)=O)C2SC(=O)N(c3ccccc3)C2=O)c1 (stereo not drawn) | inactive
30 | CCOc1ccc(CNc2nnnn2C)cc1 | inactive
31 | CCOc1ccccc1N(CC(=O)Nc1ccc2c(c1)OCCO2)S(C)(=O)=O | inactive
32 | COc1cccc(CNC(=O)C2CSC3(C)CCC(=O)N23)c1 (stereo not drawn) | inactive
33 | O=C(c1cn(-c2ccccc2)nc1-c1cccs1)N1CCOCC1 | inactive
34 | COc1ccccc1CNC(=O)c1ccc(S(=O)(=O)N(C)c2ccccc2)cc1 | inactive
35 | CCC(O)(CCN1CCCCC1)c1ccccc1 (stereo not drawn) | inactive
36 | O=C(CNC(=O)c1ccncc1)Nc1ccc(F)c(F)c1 | inactive
37 | CC(=O)Nc1ccc(NC(=O)c2ccccc2C)cc1 | inactive
38 | CCc1ccc(OCCNC(=O)c2ccco2)cc1 | inactive
39 | Cc1ccc(S(=O)(=O)N(C)c2nonc2C)cc1 | inactive
40 | CC(C)NC(=O)c1cnc(Sc2ncc(C(F)(F)F)cc2Cl)n1C | inactive
41 | Cn1cnc(S(=O)(=O)Nc2ccc(F)cc2)c1 | inactive
42 | O=C(COC(=O)c1ccc(Br)cc1)NC1CCCC1 | inactive
43 | CCCNC(=O)Cc1ccsc1 | inactive
44 | CC(=O)c1cccc(NC(=O)CSc2nc(=O)n(CCN3CCOCC3)c3c2CCCC3)c1 | inactive
45 | Cn1cnc(S(=O)(=O)Nc2ccc(OC(F)(F)F)cc2)c1 | inactive
46 | Cc1ccc(Oc2nccc(-c3ccc(Cl)cc3)n2)cc1 | inactive
47 | Cc1ccc(S(=O)(=O)N2CCN(C(=O)COC(=O)/C=C/c3ccc(F)cc3)CC2)c(C)c1 | inactive
48 | CC(C)(C)OC(=O)NCCCC(CCCNC(=O)OC(C)(C)C)C(=O)O | inactive
49 | CC(=O)c1c(N2CCC(C(N)=O)CC2)nc(=S)n(-c2ccccc2)c1C | inactive
50 | Cc1cc(C(F)(F)F)c2c(N)c(C(=O)NC3CC3)sc2n1 | inactive

Row | Structure (SMILES) | activation (light increase)
51 | Cc1nc(=O)c(-c2ccccc2)c(C)n1CCCCCC(=O)O | inactive
52 | CCCCCn1c(SCC(=O)OCC)nc2cc(C(=O)N3CCC(C(N)=O)CC3)ccc2c1=O | inactive
53 | COC(=O)c1cc(NC(=O)C2CC=CCC2C(=O)O)cc(C(=O)OC)c1 (stereo not drawn) | inactive
54 | COC(=O)C1CCN(C(=O)CN(C)Cc2ccc(C(C)(C)C)cc2)CC1 | inactive
55 | CCOCCCNC(=O)C(NC(=O)CNC(=O)c1ccccc1)c1ccccc1 (stereo not drawn) | inactive
56 | O=C(CCNC(=O)c1ccc(Cl)cc1)NCC(c1ccco1)N1CCCCC1 (stereo not drawn) | inactive
57 | COC(=O)c1cc(C(=O)OCC(=O)c2ccc3c(c2)NC(=O)CO3)cc([N+](=O)[O-])c1 | inactive
58 | Cc1ccc(C)n1-c1sc2c(c1C#N)CCC(C)C2 (stereo not drawn) | inactive
59 | CC(=O)Nc1ccc(NS(=O)(=O)c2cn(C)cn2)cc1 | inactive
60 | COc1cc(SC)ccc1C(=O)OCC(=O)NC1CCCC1 | inactive
61 | Nc1nc(SCc2nc3sc4c(c3c(=O)[nH]2)CCCC4)n[nH]1 | inactive
62 | CCOCCCNC(=O)C(NC(=O)c1cnccn1)c1ccc(C)cc1 (stereo not drawn) | inactive
63 | CCCc1cc(Nc2ccccc2OCC)n2ncnc2n1 | inactive
64 | O=C(O)CN1CCN(Cc2ccc(F)cc2Cl)C1=O | inactive
65 | O=c1c2c3c(sc2ncn1Cc1ccc(F)cc1)CCC3 | inactive
66 | Cc1ccccc1-n1ccnc1SCC(=O)NCC1CCCO1 (stereo not drawn) | inactive
67 | COc1ccc(Cl)cc1NC(=O)CN1CCc2ccccc2C1 | inactive
68 | CCOC(=O)c1c(NC(=O)COC(=O)Cc2c[nH]c3ccccc23)sc(C(=O)N(C)C)c1C | inactive
69 | Cc1ccc(OCC(=O)NC2CCS(=O)(=O)C2)c([N+](=O)[O-])n1 (stereo not drawn) | inactive
70 | Cc1occc1-c1nnc(SCC(=O)NCc2cccs2)n1-c1ccc(F)cc1 | inactive
71 | CCCCNC(=O)c1ccccc1NC(=O)CCSc1ccccc1 | inactive
72 | O=C(Oc1ccc(=O)n(-c2ccccc2)n1)c1cccc(Cl)c1 | inactive
73 | CCCCN1C(=O)C(O)(CC(=O)c2ccccn2)c2ccccc21 (stereo not drawn) | inactive
74 | CC(C)N1CCc2c(sc(NC(=O)c3ccc4ccccc4c3)c2C(N)=O)C1 | inactive
75 | COc1cc(OC)c(OC)cc1CNC(C)C(O)c1ccccc1 (stereo not drawn) | inactive

Row | Structure (SMILES) | activation (light increase)
76 | O=S(=O)(Nc1cccnc1)c1ccc(Oc2ccccc2)cc1 | inactive
77 | Cc1noc(C)c1NC(=O)Nc1cccc2c1O[C@@H](CN(C)S(=O)(=O)c1cccs1)[C@H](C)CN([C@@H](C)CO)C2=O | inactive
78 | Cc1cc(C)cc(OC(=O)c2cccnc2)c1 | inactive
79 | CCCOc1ccc(-c2nc(C#N)c(N3CCN(CC)CC3)o2)cc1 | inactive
80 | COc1ccccc1N1CCN(CCCOc2ccc(F)cc2)CC1 | inactive
81 | Cc1ccccc1NC(=O)Cc1nc(COC(=O)c2ccccn2)cs1 | inactive
82 | C[C@H](CO)N1C[C@H](C)[C@@H](CN(C)S(=O)(=O)c2ccc(Cl)cc2)Oc2c(NC(=O)Nc3ccc4c(c3)OCO4)cccc2C1=O | inactive
83 | CCCCOCC(O)CN1CCN(C(C)=O)CC1 (stereo not drawn) | inactive
84 | CCOC(=O)c1c(NC(=O)c2cccs2)sc(C)c1CC | inactive
85 | Cn1cnc(S(=O)(=O)Nc2ccc(Oc3ccccc3)cc2)c1 | inactive
86 | COC(=O)c1[nH]c2ccc(C)cc2c1NC(=O)Nc1ccc(OC)cc1 | inactive
87 | Cc1ccc(-c2cc(C(=O)N3N=C(C(F)F)CC3(O)C(F)F)c3ccccc3n2)cc1C (stereo not drawn) | inactive
88 | COc1ccc(-n2c(COc3ccccc3)nnc2SCc2ccc(C#N)cc2)cc1 | inactive
89 | CCC(C)Cn1c(S(=O)(=O)O)nc2ccccc21 (stereo not drawn) | inactive
90 | Cn1cnc(S(=O)(=O)Nc2ccc(Cl)cc2)c1 | inactive
91 | CCN(CCNC(=O)C1CCCN(S(=O)(=O)CC)C1)c1ccccc1 (stereo not drawn) | inactive
92 | COc1ccc(S(=O)(=O)Nc2cccc(S(=O)(=O)N3CCCC3)c2)cc1OC | inactive
93 | Cc1csc(NC(=O)Cc2nn(C)c(=O)c3ccccc23)n1 | inactive
94 | Cn1c(SCc2cnc(-c3ccccc3)s2)nnc1C1COc2ccccc2O1 (stereo not drawn) | inactive
95 | CCN(CC)c1nc(-c2ccccc2)cc(C(F)(F)F)c1C#N | inactive
96 | COc1ccc(CCNC(=O)c2ccc(Cl)cc2Cl)cc1 | inactive
97 | Cc1ccc(OCCCC(=O)N(C)CC(=O)Nc2ccccc2Cl)cc1 | inactive
98 | CCN(CC(=O)Nc1ccccc1C(F)(F)F)C(=O)CN1C(=O)NC(C)(c2ccc3ccccc3c2)C1=O (stereo not drawn) | inactive
